Here are results for 7 molecules from PubChem BioAssay (NCI).

Where “and” joins values, the source holds several entries; their conditions need not be identical. Equal entries are not always repeated.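 Compound exposure: 48 hours, 5 concentrations, 96-well plates. Abbreviation: GI50, concentration required for 50% inhibition of growth. TGI is the concentration that stops growth completely.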

Assay in all cases: NCI-60 cell line screen, 48 h
Assay [1] relates to MDA-MB-231 breast.
For assay [2], the system named is SNB-75 CNS.
Assay [3] concerns SNB-19 CNS.
The subject of assay [4] is EKVX NSCLC.
Assay [5] has as its system NCI/ADR-RES ovarian.
In assay [6] the test system is KM12 colon.
Assay [7] has as its system SF-539 CNS.
The subject of assay [8] is NCI-H226 lung.
In assay [9] the test system is NCI-H23 lung.
Assay [10] relates to ACHN renal.

`CSc1ccc2c(c1)N(CCCN(C)C)c1ccccc1S2`: the TGI worked out at 26.3 µM in [1]; 20.8 µM in assay [2]; 30.6 µM in assay [3]; 35.1 µM in [4]; 26.2 µM in assay [5]; 24.9 µM in assay [6]. Also, the TGI in assay [7] came out at 44.9 µM; in assay [8] it was 43.2 µM; in assay [9], 31.5 µM; in [10], 24.1 µM.

`Cc1cc(=O)[nH]c2c1C(=O)c1c(C)cc(=O)n(C)c1C2=O`: the TGI in assay [1] was determined as 0.789 µM; in assay [2], 0.0325 µM; in assay [3] it was 0.0358 µM; in assay [4], 0.366 µM; in assay [5] it was 0.259 µM; in assay [6] it was 0.192 µM. The TGI stood at 0.0369 µM in assay [7], 0.0777 µM in assay [8], 0.03 µM in assay [9] and 0.223 µM in assay [10].

On to `N#CC(C#N)=C/C=C/c1ccccc1[N+](=O)[O-]`, for which the TGI in [1] is 7.01 µM; in [2] it was more than 10 µM; in [3] it was more than 10 µM; in assay [4] it was more than 10 µM; in assay [5], 4.84 µM; in assay [6], more than 10 µM. The TGI in assay [7], in [8], in assay [9] and in [10] was more than 10 µM in each case.

As for `CC(C)(C)c1cnc(CSc2cnc(NC(=O)C3CCNCC3)s2)o1`, the GI50 in assay [1] is 0.214 µM and 0.234 µM; in assay [2], 0.15 µM and 0.124 µM; in assay [3] it was 0.244 µM and 0.259 µM; in [4], 0.427 µM; in assay [5] it was 45.5 µM; in assay [6] it was 0.14 µM and 0.166 µM. The GI50 in assay [7] is 0.243 µM and 0.179 µM; in assay [8], 0.663 µM and 0.222 µM; in assay [9], 0.251 µM and 0.211 µM; in [10], 2.12 µM and 2.14 µM. Further, the TGI was 5.34 µM and > 6.43 µM in [1]; 0.4 µM and 0.324 µM in assay [2]; more than 100 µM in assay [3]; more than 10 µM in assay [4]; more than 100 µM in assay [5]; 5.35 µM and > 10 µM in assay [6]. Also, the TGI was 0.67 µM and 0.513 µM in assay [7]; 0.767 µM and > 2.56 µM in assay [9]; more than 52.1 µM in assay [10].

With `Cc1nc(Nc2ccc(Cl)c(Cl)c2)sc1C(/C=C/c1ccc2c(c1)OCO2)=N/Nc1ccc([N+](=O)[O-])cc1[N+](=O)[O-]`, the TGI in assay [1] is more than 100 µM; in assay [2], 32.8 µM; in assay [3], more than 100 µM; in [4], more than 100 µM; in assay [5], more than 100 µM; in [6], more than 100 µM. Besides, the TGI in assay [7] was more than 91.6 µM; in [8] it was more than 100 µM; in assay [9], more than 100 µM; in [10], more than 100 µM.

On to `CNc1ccc(CSc2ccc(C)cc2)cc1`, for which the GI50 was 2.45 µM in assay [1]; 11.9 µM in [2]; 38.6 µM in assay [3]; 15.3 µM in assay [4]; 21.4 µM in assay [5]; 8.58 µM in assay [6]. The GI50 in assay [7] was 3.69 µM; in [8], 3.43 µM; in [9] it was 25 µM; in [10], 34 µM. Also, the TGI in assay [1] is 11.7 µM; in assay [2], more than 100 µM; in assay [3] it was more than 100 µM; in assay [4] it was more than 100 µM; in [5] it was more than 100 µM; in [6], more than 100 µM. The TGI in [7] is 24.5 µM; in assay [8], 16.4 µM; in [9], more than 100 µM; in assay [10], more than 100 µM.

As for `CC(=O)OCCc1cc2ccccc2oc1=O`, the TGI in [1], in assay [2], in [3], in assay [4], in [5] and in [6] was more than 100 µM each time. Also, the TGI in [7], in [8], in [9] and in assay [10] was more than 100 µM in each case.
